{"source": "patent US20260034112A1", "about": "“MULTI-CYCLIC IRAK1 AND IRAK4 INHIBITING COMPOUNDS AND USES THEREOF” (CHILDREN'S HOSPITAL MEDICAL CENTER, priority 2022, published 2026)", "tested_on": "THP1 cells", "format": "cell-based, human", "settings": "CA-4948 vs DMSO in THP1 cells"}
{"molecule": "Cc1cc(-c2nc(C(=O)Nc3cc4oc(N5CCOCC5)nc4nc3N3CC[C@@H](O)C3)co2)ccn1", "note": "[CA-4948, emavusertib]", "values": [{"measurement": "Log(FC) of gene FAM57B", "result": 0.9462}, {"measurement": "Log(FC) of gene FAM229A", "result": 0.8452}, {"measurement": "Log(FC) of gene FBXO15", "result": "−0.5977"}, {"measurement": "Log(FC) of gene FCRLB", "result": 1.162}, {"measurement": "Log(FC) of gene FFAR4", "result": 0.5911}, {"measurement": "Log(FC) of gene FLJ31945", "result": "−0.9544"}, {"measurement": "Log(FC) of gene FLJ45513", "result": 1.668}, {"measurement": "Log(FC) of gene GALR2", "result": 0.6354}, {"measurement": "Log(FC) of gene GAS6-AS1", "result": 0.6025}, {"measurement": "Log(FC) of gene GDPD3", "result": 0.695}, {"measurement": "Log(FC) of gene GIPR", "result": 0.6177}, {"measurement": "Log(FC) of gene GJC2", "result": 0.7031}, {"measurement": "Log(FC) of gene GNMT", "result": 1.408}, {"measurement": "Log(FC) of gene GP9", "result": 0.8031}, {"measurement": "Log(FC) of gene GPR3", "result": "−0.5921"}, {"measurement": "Log(FC) of gene GPR113", "result": 0.7578}, {"measurement": "Log(FC) of gene GPR135", "result": 0.8057}, {"measurement": "Log(FC) of gene GPR158", "result": "−0.6058"}, {"measurement": "Log(FC) of gene GSDMB", "result": 0.7698}, {"measurement": "Log(FC) of gene GSTM2", "result": 0.7484}, {"measurement": "Log(FC) of gene GUCA1B", "result": 1.348}, {"measurement": "Log(FC) of gene HHLA3", "result": 0.7796}, {"measurement": "Log(FC) of gene HLA-F-AS1", "result": 0.5961}, {"measurement": "Log(FC) of gene HPD", "result": 0.6253}, {"measurement": "Log(FC) of gene HSPA7", "result": 0.9538}, {"measurement": "Log(FC) of gene ID3", "result": 0.6893}, {"measurement": "Log(FC) of gene IGFBP3", "result": "−0.9606"}, {"measurement": "Log(FC) of gene IGFBP7-AS1", "result": 0.9516}, {"measurement": "Log(FC) of gene IL8", "result": "−0.7139"}, {"measurement": "Log(FC) of gene IL9R", "result": 1.002}, {"measurement": "Log(FC) of gene IL10RB-AS1", "result": 0.6103}, {"measurement": "Log(FC) of gene IPO9-AS1", "result": 0.7271}, {"measurement": "Log(FC) of gene ITIH4", "result": 1.233}, {"measurement": "Log(FC) of gene KCND1", "result": 0.5935}, {"measurement": "Log(FC) of gene KCNIP3", "result": "−0.6151"}, {"measurement": "Log(FC) of gene KIAA1324", "result": 0.7793}, {"measurement": "Log(FC) of gene KRBA2", "result": "−0.8123"}, {"measurement": "Log(FC) of gene LAMC3", "result": 0.6855}, {"measurement": "Log(FC) of gene LDLRAD4", "result": 0.7569}, {"measurement": "Log(FC) of gene LHPP", "result": 1.078}, {"measurement": "Log(FC) of gene LINC00337", "result": 0.6329}, {"measurement": "Log(FC) of gene LINC00641", "result": 0.8241}, {"measurement": "Log(FC) of gene LINC00893", "result": 0.737}, {"measurement": "Log(FC) of gene LINC00959", "result": 0.7922}, {"measurement": "Log(FC) of gene LOC155060", "result": 0.6346}, {"measurement": "Log(FC) of gene LOC284889", "result": 0.8366}, {"measurement": "Log(FC) of gene LOC644961", "result": 0.6222}, {"measurement": "Log(FC) of gene LOC728715", "result": 0.6401}, {"measurement": "Log(FC) of gene LOC728752", "result": 0.7225}, {"measurement": "Log(FC) of gene LOC100128494", "result": 0.9913}, {"measurement": "Log(FC) of gene LOC100129924", "result": 1.019}, {"measurement": "Log(FC) of gene LOC100130698", "result": "−1.064"}, {"measurement": "Log(FC) of gene LOC100130705", "result": 0.845}, {"measurement": "Log(FC) of gene LOC100133091", "result": 0.5851}, {"measurement": "Log(FC) of gene LOC100134868", "result": 0.8444}, {"measurement": "Log(FC) of gene LOC100288069", "result": 0.6928}, {"measurement": "Log(FC) of gene LOC100288102", "result": "−0.6006"}, {"measurement": "Log(FC) of gene LOC100505771", "result": 0.7704}, {"measurement": "Log(FC) of gene LOC100506083", "result": 0.8144}, {"measurement": "Log(FC) of gene LOC100506100", "result": 0.8985}, {"measurement": "Log(FC) of gene LOC100506472", "result": 0.7649}, {"measurement": "Log(FC) of gene LOC100506518", "result": 0.7779}, {"measurement": "Log(FC) of gene LOC100506548", "result": 1.108}, {"measurement": "Log(FC) of gene LOC100507373", "result": 0.7784}, {"measurement": "Log(FC) of gene LOC100507424", "result": 1.26}, {"measurement": "Log(FC) of gene LOC100507462", "result": 0.6976}, {"measurement": "Log(FC) of gene LOC101927085", "result": "−0.6948"}, {"measurement": "Log(FC) of gene LOC101927119", "result": 0.6408}, {"measurement": "Log(FC) of gene LOC101927895", "result": 0.6379}, {"measurement": "Log(FC) of gene LOC101927910", "result": 1.281}, {"measurement": "Log(FC) of gene LOC101927974", "result": 0.7679}, {"measurement": "Log(FC) of gene LOC101928038", "result": 0.8781}, {"measurement": "Log(FC) of gene LOC101928055", "result": 0.8595}, {"measurement": "Log(FC) of gene LOC101928710", "result": 0.5901}, {"measurement": "Log(FC) of gene LOC101928830", "result": 0.7631}, {"measurement": "Log(FC) of gene LOC101929046", "result": 0.6794}, {"measurement": "Log(FC) of gene LOC101929054", "result": 0.589}, {"measurement": "Log(FC) of gene LOC101929112", "result": 0.5992}]}
